Experimental data reported in patent US20230274799A1, “SYSTEMS AND METHODS FOR PATIENT STRATIFICATION AND IDENTIFICATION OF POTENTIAL BIOMARKERS” (Berg LLC, priority 2016, published 2023).
Several values for one entry are separate records, joined by “and”; a condition that tells them apart may be missing. Identical values can stand only once.

Key:
Assay type in all cases: in vivo, human
[1] = Phase I dose-escalation trial, dose limiting toxicities of Coenzyme Q10 in combination with chemotherapy (Arm 2)
Text: (§1) The clinical trial is a multicenter, open-label, non-randomized, dose-escalation study to examine the dose limiting toxicities (DLT) of Coenzyme Q10 administered as a 144-hour continuous intravenous (IV) infusion as monotherapy (treatment Arm 1) and in combination with chemotherapy (treatment Arm 2) in patients with solid tumors. A broad range of solid tumors has been evaluated, including prostate, colon, breast, lung and pancreatic tumors, as shown in Tables 1 and 2 below. Coenzyme Q10 was administered in three consecutive 48 hour doses or two consecutive 72 hour doses, depending on the dose level. Three standard weekly chemotherapy regimens of gemcitabine, 5-fluorouracil, or docetaxel were evaluated in combination with Coenzyme Q10. Eligible patients are 18 years of age or older, afflicted with solid tumors, and relapsed/refractory to standard therapy. 85 patients have been enrolled in the trial. The monotherapy arm received Coenzyme Q10 for 6 days in continuous infusion in 28 day cycles, and the combination arms (gemcitabine, 5-fluorouracil, or docetaxel) were primed for 3 weeks with Coenzyme Q10 before initiation of standard chemotherapy, followed by weekly dosing in a 6 week cycle.
The study is a standard 3+3 dose escalation design with the dose escalated in successive cohorts of 3 to 6 patients each. […]

[2] = Pharmacokinetics of Coenzyme Q10 in plasma during and after 144-hour continuous IV infusion; design: Coenzyme Q10 concentration in plasma, Mean ± SD: unit not given here
Experimental: Pharmacokinetics of Coenzyme Q10 was measured in the patients at time zero and at several time points during and after the 144-hour continuous intravenous (IV) infusion with Coenzyme Q10.

[3] = Phase I dose-escalation trial, dose limiting toxicities of Coenzyme Q10 monotherapy (Arm 1)
Text: as §1
The study is a standard 3+3 dose escalation design with the dose escalated in successive cohorts of 3 to 6 patients each. Toxicity at each dose level is graded according to National Cancer Institute Common Terminology Criteria for Adverse Events (CTCAE v4.02). Safety oversight is provided by the Cohort Review Committee (CRC). If none of the 3 patients in a cohort experiences a DLT during Cycle 1, then 3 new patients may be entered at the next higher dose level following CRC review of safety and PK data from lower cohorts. The clinical trial is described in greater detail in WO2015/035094, which is incorporated by reference herein in its entirety.
DLTs were reported at 171 mg/kg in the Coenzyme Q10 monotherapy arm and at 137 mg/kg in the gemcitabine arm (maximum administered dose) and were coagulopathy-related. 3 DLTs were reported during the time period covered by Example 1. […] The event resolved in 2 days after administration of Vitamin K and fresh frozen plasma (FFP). Three additional patients were enrolled at this dose level with no additional DLTs reported. […] According to trial design, patients were being enrolled into the next lowest dose level (110 mg/kg).
Table 4. Dose limiting toxicities for Coenzyme Q10 monotherapy. The number of patients enrolled at each dose level (DL) is shown in parentheses. DL4 and DL5 were administered in two consecutive 72 hour IV infusions. All other dose levels were administered by three consecutive 48 hour IV infusions.

## COC1=C(OC)C(=O)C(C/C=C(\C)CC/C=C(\C)CC/C=C(\C)CC/C=C(\C)CC/C=C(\C)CC/C=C(\C)CC/C=C(\C)CC/C=C(\C)CC/C=C(\C)CCC=C(C)C)=C(C)C1=O [Coenzyme Q10]
[1]; DL4 - 110 mg/kg with Gemcitabine 1,000 mg/m^2 (6 enrolled), two consecutive 72 hour infusions, cell wraps r34-r38: None to Date- need 3 more evaluable patients to determine MTD
  Dose Limiting Toxicity: None to Date-
[1]; in vivo
  Dose Limiting Toxicity: None
[2]; 220 mg/kg/week, Arm 2, n = 9 (footnote c), time 96 hr
  Coenzyme Q10 concentration in plasma, Mean ± SD: 348 ± 225^c
[2]; 220 mg/kg/week, Arm 2, n = 9 (footnote c), time 148 hr
  Coenzyme Q10 concentration in plasma, Mean ± SD: 250 ± 251^c
[2]; 220 mg/kg/week, Arm 2, n = 11 (footnote b), time 4 hr
  Coenzyme Q10 concentration in plasma, Mean ± SD: 158 ± 57^b
[2]; 220 mg/kg/week, Arm 2, n = 11 (footnote b), time 140 hr
  Coenzyme Q10 concentration in plasma, Mean ± SD: 378 ± 244^b
[2]; 220 mg/kg/week, Arm 2, n = 11 (footnote b), time 146 hr
  Coenzyme Q10 concentration in plasma, Mean ± SD: 282 ± 207^b
[2]; 220 mg/kg/week, Arm 2, n = 12 (footnote a), time 1 hr
  Coenzyme Q10 concentration in plasma, Mean ± SD: 150 ± 54^a
[2]; 220 mg/kg/week, Arm 2, n = 12 (footnote a), time 73 hr
  Coenzyme Q10 concentration in plasma, Mean ± SD: 227 ± 212^a
[2]; 220 mg/kg/week, Arm 2, n = 12 (footnote a), time 74 hr
  Coenzyme Q10 concentration in plasma, Mean ± SD: 226 ± 193^a
[2]; 220 mg/kg/week, Arm 2, n = 12 (footnote a), time 143.5 hr
  Coenzyme Q10 concentration in plasma, Mean ± SD: 363 ± 221^a
[2]; 220 mg/kg/week, Arm 2, n = 13, time 0 hr
  Coenzyme Q10 concentration in plasma, Mean ± SD: 0
[2]; 220 mg/kg/week, Arm 2, n = 13, time 2 hr
  Coenzyme Q10 concentration in plasma, Mean ± SD: 163 ± 66^
[2]; 220 mg/kg/week, Arm 2, n = 13, time 24 hr
  Coenzyme Q10 concentration in plasma, Mean ± SD: 251 ± 155
[2]; 220 mg/kg/week, Arm 2, n = 13, time 71.5 hr
  Coenzyme Q10 concentration in plasma, Mean ± SD: 255 ± 199
[2]; 220 mg/kg/week, Arm 2, n = 13, time 142 hr
  Coenzyme Q10 concentration in plasma, Mean ± SD: 358 ± 214
[2]; 274 mg/kg/week, Arm 1, n = 3 (so in the source), time 0 hr
  Coenzyme Q10 concentration in plasma, Mean ± SD: 0
[2]; 274 mg/kg/week, Arm 1, n = 3 (so in the source), time 1 hr
  Coenzyme Q10 concentration in plasma, Mean ± SD: 173 ± 36
[2]; 274 mg/kg/week, Arm 1, n = 3 (so in the source), time 2 hr
  Coenzyme Q10 concentration in plasma, Mean ± SD: 175 ± 42
[2]; 274 mg/kg/week, Arm 1, n = 3 (so in the source), time 4 hr
  Coenzyme Q10 concentration in plasma, Mean ± SD: 185 ± 51
[2]; 274 mg/kg/week, Arm 1, n = 3 (so in the source), time 24 hr
  Coenzyme Q10 concentration in plasma, Mean ± SD: 261 ± 149
[2]; 274 mg/kg/week, Arm 1, n = 3 (so in the source), time 71.5 hr
  Coenzyme Q10 concentration in plasma, Mean ± SD: 390 ± 260
[2]; 274 mg/kg/week, Arm 1, n = 3 (so in the source), time 73 hr
  Coenzyme Q10 concentration in plasma, Mean ± SD: 329 ± 260
[2]; 274 mg/kg/week, Arm 1, n = 3 (so in the source), time 74 hr
  Coenzyme Q10 concentration in plasma, Mean ± SD: 335 ± 242
[2]; 274 mg/kg/week, Arm 1, n = 3 (so in the source), time 96 hr
  Coenzyme Q10 concentration in plasma, Mean ± SD: 416 ± 291
[2]; 274 mg/kg/week, Arm 1, n = 3 (so in the source), time 140 hr
  Coenzyme Q10 concentration in plasma, Mean ± SD: 513 ± 213
[2]; 274 mg/kg/week, Arm 1, n = 3 (so in the source), time 142 hr
  Coenzyme Q10 concentration in plasma, Mean ± SD: 514 ± 260
[2]; 274 mg/kg/week, Arm 1, n = 3 (so in the source), time 143.5 hr
  Coenzyme Q10 concentration in plasma, Mean ± SD: 510 ± 259
[2]; 274 mg/kg/week, Arm 1, n = 3 (so in the source), time 146 hr
  Coenzyme Q10 concentration in plasma, Mean ± SD: 486 ± 254
[2]; 274 mg/kg/week, Arm 1, n = 3 (so in the source), time 148 hr
  Coenzyme Q10 concentration in plasma, Mean ± SD: 380 ± 219
[2]; 274 mg/kg/week, Arm 1, n = 4 (footnote e), time 96 hr
  Coenzyme Q10 concentration in plasma, Mean ± SD: 407 ± 195^e
[2]; 274 mg/kg/week, Arm 1, n = 4 (footnote e), time 140 hr
  Coenzyme Q10 concentration in plasma, Mean ± SD: 517 ± 185^e
[2]; 274 mg/kg/week, Arm 1, n = 4 (footnote e), time 142 hr
  Coenzyme Q10 concentration in plasma, Mean ± SD: 528 ± 179^e
[2]; 274 mg/kg/week, Arm 1, n = 5 (footnote d), time 4 hr
  Coenzyme Q10 concentration in plasma, Mean ± SD: 181 ± 56^d
[2]; 274 mg/kg/week, Arm 1, n = 5 (footnote d), time 71.5 hr
  Coenzyme Q10 concentration in plasma, Mean ± SD: 265 ± 188^d
[2]; 274 mg/kg/week, Arm 1, n = 5 (footnote d), time 146 hr
  Coenzyme Q10 concentration in plasma, Mean ± SD: 460 ± 249^d
[2]; 274 mg/kg/week, Arm 1, n = 5 (footnote d), time 148 hr
  Coenzyme Q10 concentration in plasma, Mean ± SD: 397 ± 230^d
[2]; 274 mg/kg/week, Arm 1, n = 6, time 0 hr
  Coenzyme Q10 concentration in plasma, Mean ± SD: 0
[2]; 274 mg/kg/week, Arm 1, n = 6, time 1 hr
  Coenzyme Q10 concentration in plasma, Mean ± SD: 188 ± 46
[2]; 274 mg/kg/week, Arm 1, n = 6, time 2 hr
  Coenzyme Q10 concentration in plasma, Mean ± SD: 190 ± 38
[2]; 274 mg/kg/week, Arm 1, n = 6, time 24 hr
  Coenzyme Q10 concentration in plasma, Mean ± SD: 287 ± 189
[2]; 274 mg/kg/week, Arm 1, n = 6, time 73 hr
  Coenzyme Q10 concentration in plasma, Mean ± SD: 367 ± 313
[2]; 274 mg/kg/week, Arm 1, n = 6, time 74 hr
  Coenzyme Q10 concentration in plasma, Mean ± SD: 387 ± 332
[2]; 274 mg/kg/week, Arm 1, n = 6, time 143.5 hr
  Coenzyme Q10 concentration in plasma, Mean ± SD: 560 ± 246
[2]; 342 mg/kg/week, Arm 1, n = 4 (footnote e), time 96 hr
  Coenzyme Q10 concentration in plasma, Mean ± SD: 411 ± 189^e
[2]; 342 mg/kg/week, Arm 1, n = 4 (footnote e), time 140 hr
  Coenzyme Q10 concentration in plasma, Mean ± SD: 695 ± 414^e
[2]; 342 mg/kg/week, Arm 1, n = 4 (footnote e), time 143.5 hr
  Coenzyme Q10 concentration in plasma, Mean ± SD: 789 ± 161^e
[2]; 342 mg/kg/week, Arm 1, n = 4 (footnote e), time 146 hr
  Coenzyme Q10 concentration in plasma, Mean ± SD: 679 ± 141^e
[2]; 342 mg/kg/week, Arm 1, n = 4 (footnote e), time 148 hr
  Coenzyme Q10 concentration in plasma, Mean ± SD: 596 ± 143^e
[2]; 342 mg/kg/week, Arm 1, n = 5, time 0 hr
  Coenzyme Q10 concentration in plasma, Mean ± SD: 0
[2]; 342 mg/kg/week, Arm 1, n = 5, time 1 hr
  Coenzyme Q10 concentration in plasma, Mean ± SD: 289 ± 59
[2]; 342 mg/kg/week, Arm 1, n = 5, time 2 hr
  Coenzyme Q10 concentration in plasma, Mean ± SD: 297 ± 81
[2]; 342 mg/kg/week, Arm 1, n = 5, time 4 hr
  Coenzyme Q10 concentration in plasma, Mean ± SD: 304 ± 90
[2]; 342 mg/kg/week, Arm 1, n = 5, time 24 hr
  Coenzyme Q10 concentration in plasma, Mean ± SD: 463 ± 274
[2]; 342 mg/kg/week, Arm 1, n = 5, time 71.5 hr
  Coenzyme Q10 concentration in plasma, Mean ± SD: 563 ± 188
[2]; 342 mg/kg/week, Arm 1, n = 5, time 73 hr
  Coenzyme Q10 concentration in plasma, Mean ± SD: 514 ± 205
[2]; 342 mg/kg/week, Arm 1, n = 5, time 74 hr
  Coenzyme Q10 concentration in plasma, Mean ± SD: 537 ± 219
[2]; 342 mg/kg/week, Arm 1, n = 5, time 142 hr
  Coenzyme Q10 concentration in plasma, Mean ± SD: 699 ± 290
[2]; Arm 1 (monotherapy), exception: 96-hour sampling time, similar
  Mean plasma concentrations of Coenzyme Q10, comparison of doses: higher for the 342 mg/kg/week dose than for the 274 mg/kg/week dose
[2]; Arm 1 vs Arm 2 at any of the dose levels
  Effect of concomitant chemotherapy on the pharmacokinetics of Coenzyme Q10: no apparent effect
[2]; Arm 2 (chemotherapy combination therapy), first 72 hours of the infusion, distinctly higher during the second 72 hours
  Plasma profiles of Coenzyme Q10, comparison of doses: slightly higher for the 274 mg/kg/week dose than for the 220 mg/kg/week dose
[3]; Mono Dose Level 5 (171 mg/kg), after administration of Vitamin K and fresh frozen plasma
  Time to resolution of DLT event (grade 3 PTT abnormality): 2 days
[3]; monotherapy DL1 - 66 mg/kg (9 enrolled), three consecutive 48 hour IV infusions, cell wraps r7-r9: Grade 3 Elevated Liver Function Test*, *readjudicated to unlikely related to protocol therapy
  Dose Limiting Toxicity: Grade 3 Elevated
[3]; monotherapy DL2 - 88 mg/kg (4 enrolled), three consecutive 48 hour IV infusions
  Dose Limiting Toxicity: None
[3]; monotherapy DL3 - 110 mg/kg (5 enrolled), three consecutive 48 hour IV infusions
  Dose Limiting Toxicity: None
[3]; monotherapy DL4 - 137 mg/kg (4 enrolled), two consecutive 72 hour IV infusions
  Dose Limiting Toxicity: None
[3]; monotherapy DL5 - 171 mg/kg (8 enrolled), two consecutive 72 hour IV infusions, cell wraps r20-r21: 1 DLT: Grade 3 PTT elevation
  Dose Limiting Toxicity: grade 3 partial thromboplastin time (PTT) abnormality and 1 DLT: Grade 3
[3]; whole trial (mono and combination arms), time period covered by Example 1
  Number of DLTs reported: 3
